Data reported in PubChem BioAssay (NCI).
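A five-concentration, 48-hour dose response in 96-well plates underlies each endpoint, interpolated linearly between surrounding concentrations. At the GI50, growth is halved. The concentration for full growth arrest is given as TGI.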

Experiments:
Assay in all cases: DTP human tumour cell line panel, 48 h
[1] = test system: OVCAR-5 ovarian
[2] = test system: UACC-257 melanoma
[3] = test system: PC-3 prostate
[4] = test system: HOP-92 NSCLC
[5] = test system: CCRF-CEM leukemia
[6] = test system: MDA-MB-435
[7] = test system: SK-OV-3 ovarian
[8] = test system: SK-MEL-5 melanoma
[9] = test system: SF-539 CNS
[10] = test system: HOP-62 NSCLC
[11] = test system: MCF7 breast
[12] = test system: SW-620 colon
[13] = test system: KM12 colon
[14] = test system: SF-295 CNS
[15] = test system: SK-MEL-28 melanoma
[16] = test system: HCT-116 colon
[17] = test system: A549 NSCLC
[18] = test system: M14 melanoma
[19] = test system: CAKI-1 renal
[20] = test system: HCT-15 colon
[21] = test system: HL-60(TB) leukemia
[22] = test system: COLO 205 colon
[23] = test system: U251 CNS
[24] = test system: NCI/ADR-RES ovarian
[25] = test system: MOLT-4 leukemia
[26] = test system: A498 renal
[27] = test system: UO-31 renal
[28] = test system: EKVX NSCLC
[29] = test system: HT29 colon
[30] = test system: TK-10 renal
[31] = test system: IGROV1 ovarian
[32] = test system: SNB-75 CNS
[33] = test system: BT-549 breast
[34] = test system: NCI-H460 lung
[35] = test system: HCC-2998 colon
[36] = test system: SR leukemia
[37] = test system: SN12C renal
[38] = test system: T-47D breast
[39] = test system: OVCAR-4 ovarian
[40] = test system: SNB-19 CNS
[41] = test system: MALME-3M melanoma
[42] = test system: HS 578T breast
[43] = test system: MDA-MB-231 breast
[44] = test system: SF-268 CNS
[45] = test system: ACHN renal
[46] = test system: NCI-H23 lung
[47] = test system: NCI-H522 lung
[48] = test system: DU-145 prostate
[49] = test system: NCI-H226 lung
[50] = test system: 786-0 renal
[51] = test system: SK-MEL-2 melanoma
[52] = test system: K-562 leukemia
[53] = test system: UACC-62 melanoma
[54] = test system: RXF 393 renal
[55] = test system: OVCAR-8 ovarian
[56] = test system: RPMI-8226 leukemia
[57] = test system: LOX IMVI melanoma

Q: What does the source list for Oc1ccc(CSc2nnc(-c3ccccc3)n2-c2ccccc2)c2cccnc12?
A: GI50 [1]: 2880 nM; TGI [1]: > 100000 nM; GI50 [2]: 811 nM; TGI [2]: 6650 nM; GI50 [3]: 440 nM; TGI [3]: > 47700 nM; GI50 [4]: 227 nM; TGI [4]: 787 nM; GI50 [5]: 396 nM; TGI [5]: > 43400 nM; GI50 [6]: 439 nM; TGI [6]: > 100000 nM; GI50 [7]: 481 nM; TGI [7]: 6810 nM; GI50 [8]: 522 nM; TGI [8]: 3220 nM; GI50 [9]: 427 nM; TGI [9]: 3270 nM; GI50 [10]: 449 nM; TGI [10]: 7910 nM; GI50 [11]: 348 nM; TGI [11]: > 70200 nM; GI50 [12]: 443 nM; TGI [12]: > 100000 nM; GI50 [13]: 534 nM; TGI [13]: > 100000 nM; GI50 [14]: 406 nM; TGI [14]: 4280 nM; GI50 [15]: 614 nM; TGI [15]: 55200 nM; GI50 [16]: 362 nM; TGI [16]: 4870 nM; GI50 [17]: 644 nM; TGI [17]: > 33300 nM; GI50 [18]: 405 nM; TGI [18]: 2440 nM; GI50 [19]: 559 nM; TGI [19]: 3440 nM; GI50 [20]: 348 nM; TGI [20]: > 100000 nM; GI50 [21]: 376 nM; TGI [21]: 6910 nM; GI50 [22]: 4790 nM; TGI [22]: > 100000 nM; GI50 [23]: 298 nM; TGI [23]: 9460 nM; GI50 [24]: 285 nM; TGI [24]: 2340 nM; GI50 [25]: 480 nM; TGI [25]: > 100000 nM; GI50 [26]: 1520 nM; TGI [26]: 11700 nM; GI50 [27]: 315 nM; TGI [27]: 1560 nM; GI50 [28]: 771 nM; TGI [28]: 6400 nM; GI50 [29]: 3960 nM; TGI [29]: > 100000 nM; GI50 [30]: 514 nM; TGI [30]: 4670 nM; GI50 [31]: 557 nM; TGI [31]: 13000 nM; GI50 [32]: 673 nM; TGI [32]: 5150 nM; GI50 [33]: 590 nM; TGI [33]: > 26000 nM; GI50 [34]: 351 nM; TGI [34]: 3470 nM; GI50 [35]: 728 nM; TGI [35]: > 100000 nM; GI50 [36]: 404 nM; TGI [36]: > 100000 nM; GI50 [37]: 416 nM; TGI [37]: 25400 nM; GI50 [38]: 625 nM; TGI [38]: 4320 nM; GI50 [39]: 706 nM; TGI [39]: 13000 nM; GI50 [40]: 395 nM; TGI [40]: 14200 nM; GI50 [41]: 1150 nM; TGI [41]: 6190 nM; GI50 [42]: 433 nM; TGI [42]: 12100 nM; GI50 [43]: 620 nM; TGI [43]: 11400 nM; GI50 [44]: 519 nM; TGI [44]: 21100 nM; GI50 [45]: 364 nM; TGI [45]: 1290 nM; GI50 [46]: 541 nM; TGI [46]: 11000 nM; GI50 [47]: 402 nM; TGI [47]: 7190 nM; GI50 [48]: 605 nM; TGI [48]: 22200 nM; GI50 [49]: 1900 nM; TGI [49]: > 79200 nM; GI50 [50]: 923 nM; TGI [50]: 5090 nM; GI50 [51]: 621 nM; TGI [51]: 6090 nM; GI50 [52]: 403 nM; TGI [52]: > 39700 nM; GI50 [53]: 713 nM; TGI [53]: 3630 nM; GI50 [54]: 887 nM; TGI [54]: 6120 nM; GI50 [55]: 377 nM; TGI [55]: > 22800 nM; GI50 [56]: 448 nM; TGI [56]: > 100000 nM; GI50 [57]: 485 nM; TGI [57]: 2820 nM
